Source: patent US8168656B2, “Indoleacetic acid and indenacetic acid derivatives as therapeutic agents with reduced gastrointestinal toxicity” (Vanderbilt University, priority 2009, dated 2012)

How the values were obtained:
[1] = system: PPARγ; assay: PPARγ reporter assay in transfected HEK293 cells; type: cell-based; details: transfected cells in culture
Method: Human embryonic kidney cells (HEK293 cells) were purchased from American Type Culture Collection (ATCC) and maintained in Dulbecco's modified Eagle's medium (DMEM) with GIBCO™ GLUTAMAX™ (Invitrogen Corp., Carlsbad, Calif., United States of America) and 10% heat-inactivated FBS (Atlas Biological, Fort Collins, Colo., United States of America) or 10% charcoal-stripped FBS (HyClone, Logan, Utah, United States of America) in a 5% CO2 constant humidity 37° C. incubator. 9×10^5 HEK293 cells were plated in DMEM supplemented with 10% charcoal-stripped FBS. 18-24 hours after plating, cells were transfected with a control Renilla luciferase expressing plasmid (0.2 μg pCMV-renilla luciferase from Promega Corp., Madison, Wis., United States of America), 0.4 μg PPARγ-GAL4, and 0.4 μg UAS-tk-luc using a lipid ratio of 8 μL Effectene Transfection Reagent (Qiagen Inc., Valencia, Calif., United States of America) per 1 μg DNA in 3 mL of DMEM+10% charcoal-stripped FBS. Cells remained in the transfection mixture overnight until the transfection media was replaced with DMEM+10% charcoal-stripped serum containing ligands of interest or vehicle (0.1% DMSO) […]

[2] = system: cultured cancer cells; assay: Induction of apoptosis of cultured cancer cells; type: cell-based, human
Method: RKO, HCT-116 (another human colorectal cancer cell line), and H1299 (a human non-small cell cancer line) cells that had been treated with test compounds for various times were washed twice with ice-cold PBS and lysed in a lysis buffer (BioVision) on ice for 10 minutes, followed by centrifugation at 15,000×g for 10 minutes. Caspase-3 activity, which is a measure if the initiation of apoptotic cell death, was determined in the supernatant by a colorimeric assay kit (BioVision Inc., Palo Alto, Calif., United States of America) using the p-nitroanilide-labeled peptide, DEVD-pNA, as substrate. Caspase-3 activity was monitored by the release of p-nitroanilide from the substrate at 405 nm. The fold increase in caspase-3 activity is shown in FIG. 9, and was calculated by comparing the absorbance of p-nitroanilide from vehicle treated controls and those treated with sulindac sulfide and its analogs. […]

[3] = system: C57/BL6 mice; assay: Toxicity in vivo, daily injections; details: daily injections of a series of concentrations

| SMILES | ability to activate PPARγ-mediated transcription in transfected cells, compared with parent drug [1] | ability to induce apoptosis of cultured cancer cells, compared with parent drug [2] | less toxic than indomethacin [3] |
| --- | --- | --- | --- |
| COc1ccc2c(c1)c(CC(=O)O)cn2C(=O)c1ccc(Cl)cc1 [2-Des-methylindomethacin, [1-(4-Chloro-benzoyl)-5-methoxy-1H-indol-3-yl]-acetic acid] | as active or more active than the parent drug | as active or more active than the parent drug | at least 25 fold |
| CSc1ccc(C=C2C=C(CC(=O)O)c3cc(F)ccc32)cc1 [eindenic acid sulfide, [6-Fluoro-3-(4-methylsulfanyl-benzylidene)-3H-inden-1-yl]-acetic acid] | considerably more active than sulindac sulfide | considerably more active than sulindac sulfide |  |
